Results from patent US4613503A, “Antibiotic A26201-1 and antibiotic A26201-2 produced by a novel strain of actinoplanes” (The Dow Chemical Company, priority 1984, dated 1986).

Tests used:
Type in all cases: cell-based
[1] = test system: Fusobacterium necrophorum; test: Minimum inhibitory concentration, agar dilution; details: trypticase soy agar, 2-fold serial dilutions
Mucor miehei = test: Minimum inhibitory concentration, agar dilution; details: trypticase soy agar, 2-fold serial dilutions
Pseudomonas aeruginosa = test: Minimum inhibitory concentration, agar dilution; details: trypticase soy agar, 2-fold serial dilutions
Streptococcus mutans = test: Minimum inhibitory concentration, agar dilution; details: trypticase soy agar, 2-fold serial dilutions
Clostridium septicum = test: Minimum inhibitory concentration, agar dilution; details: trypticase soy agar, 2-fold serial dilutions
Escherchia coli = test: Minimum inhibitory concentration, agar dilution; details: trypticase soy agar, 2-fold serial dilutions
Streptococcus faecalis = test: Minimum inhibitory concentration, agar dilution; details: trypticase soy agar, 2-fold serial dilutions
Salmonella typhimurium = test: Minimum inhibitory concentration, agar dilution; details: trypticase soy agar, 2-fold serial dilutions
Clostridium perfringens = test system: Clostridium perfringens
Candida albicans = test: Minimum inhibitory concentration, agar dilution; details: trypticase soy agar, 2-fold serial dilutions
Lactobacillus casei = test: Minimum inhibitory concentration, agar dilution; details: trypticase soy agar, 2-fold serial dilutions
Bacillus subtilis = test: Minimum inhibitory concentration, agar dilution; details: trypticase soy agar, 2-fold serial dilutions
Bacteroides fragilis = test: Minimum inhibitory concentration, agar dilution; details: trypticase soy agar, 2-fold serial dilutions
Bacteroides multiacidus = test: Minimum inhibitory concentration, agar dilution; details: trypticase soy agar, 2-fold serial dilutions
Sarcina lutea = test: Minimum inhibitory concentration, agar dilution; details: trypticase soy agar, 2-fold serial dilutions
Erwinia amylovora = test: Minimum inhibitory concentration, agar dilution; details: trypticase soy agar, 2-fold serial dilutions
Staphylococcus aureus = test: Minimum inhibitory concentration, agar dilution; details: trypticase soy agar, 2-fold serial dilutions
Actinomyces viscosus = test: Minimum inhibitory concentration, agar dilution; details: trypticase soy agar, 2-fold serial dilutions
Pircularia oryzae = test: Minimum inhibitory concentration, agar dilution; details: trypticase soy agar, 2-fold serial dilutions
Description: Minimum inhibitory concentrations (MIC's) were determined respectively for the crude broth material, antibiotic A26201, antibiotic A26201-1, antibiotic A26201-2, and gardimycin against a number of different microorganisms. The following techniques were used to determine the MIC's:
Thirty ml aliquots of trypticase soy agar were respectively placed in individual tubes. The agar was melted and then cooled to about 45° to 50° C. A concentration (2-fold serial dilutions of the highest concentration tested) of test antibiotic was added to each individual tube. Each test mixture was stirred and poured into an individual petri plate so that each petri plate contained a single concentration of antibiotic. When the agar hardened, the plates were inoculated with either aerobic or anaerobic test organisms. The plates inoculated with aerobic organisms were incubated at 37° C. for 24 hours and read for bacterial growth. The same plates were again incubated at 30° C. for an additional 48 hours at which point they were checked for yeast and fungal growth. The plates inoculated with anaerobic organisms were incubated at 37° C. in an anaerobic chamber and read at 48 hours.

Streptococcus bovis = test: Minimum inhibitory concentration, agar dilution; details: trypticase soy agar, 2-fold serial dilutions
Aspergillus niger = test: Minimum inhibitory concentration, agar dilution; details: trypticase soy agar, 2-fold serial dilutions

## gardimycin
[1]
  MIC: > 75 µg/mL
Mucor miehei
  MIC: > 75 µg/mL
Pseudomonas aeruginosa
  MIC: > 75 µg/mL
Streptococcus mutans
  MIC: > 75 µg/mL
Clostridium septicum
  MIC: 3.1 µg/mL
Escherchia coli
  MIC: > 75 µg/mL
Streptococcus faecalis
  MIC: 25 µg/mL
Salmonella typhimurium
  MIC: > 75 µg/mL
Clostridium perfringens
  MIC: 3.1 µg/mL
Candida albicans
  MIC: > 75 µg/mL
Lactobacillus casei
  MIC: > 75 µg/mL
Bacillus subtilis
  MIC: 75 µg/mL
Bacteroides fragilis
  MIC: > 50 µg/mL
Bacteroides multiacidus
  MIC: > 50 µg/mL
Sarcina lutea
  MIC: 1.5 µg/mL
Erwinia amylovora
  MIC: > 75 µg/mL
Staphylococcus aureus
  MIC: 75 µg/mL
Actinomyces viscosus
  MIC: 12.5 µg/mL
Pircularia oryzae
  MIC: > 75 µg/mL
Streptococcus bovis
  MIC: > 75 µg/mL
Aspergillus niger
  MIC: > 75 µg/mL
